Test results taken from patent US20250381176A1, “SCD1 INHIBITORS FOR TREATING LIVER DISEASE” (MODULATION THERAPEUTICS, INC., priority 2022, published 2025).
“Also recorded” adds a separate entry of the source.

What was measured:
SCD1 mRNA = details: cited from earlier work
known kinases = experiment: Off-target reactivity with kinases; format: biochemical
[1] = Oral tolerability in male and female rats; format: in vivo
[2] = system: C57BL6/J male mice fed on a Western Diet; experiment: Western Diet-induced liver steatosis in mice, Compound 1 at 2 mg/kg IP for 10 days; format: in vivo
Experimental: The study was performed with C57BL6/J male mice, placed on a Western Diet for 4 months, and treated for 10 days IP with Compound 1 (2 mg/kg−N=3; *P<0.05)

[3] = Oral PK in rats (Table 1); format: in vivo; details: plasma, Sprague Dawley rat, 12.5 mg/kg oral gavage
SCD1 = molecular target: T1, SCD1 (Homo sapiens, UniProt O00767); experiment: SCD1 enzyme inhibition (conversion of 13C18-stearoyl CoA to 13C18-oleoyl, LC-MS/MS, liver microsomes); format: biochemical
T1 construct: conversion of ^13C18-stearoyl CoA to ^13C18-oleoyl using LC-MS/MS in liver microsomes; from tissue; host or cells: liver microsomes
T1 sequence (O00767 1-359): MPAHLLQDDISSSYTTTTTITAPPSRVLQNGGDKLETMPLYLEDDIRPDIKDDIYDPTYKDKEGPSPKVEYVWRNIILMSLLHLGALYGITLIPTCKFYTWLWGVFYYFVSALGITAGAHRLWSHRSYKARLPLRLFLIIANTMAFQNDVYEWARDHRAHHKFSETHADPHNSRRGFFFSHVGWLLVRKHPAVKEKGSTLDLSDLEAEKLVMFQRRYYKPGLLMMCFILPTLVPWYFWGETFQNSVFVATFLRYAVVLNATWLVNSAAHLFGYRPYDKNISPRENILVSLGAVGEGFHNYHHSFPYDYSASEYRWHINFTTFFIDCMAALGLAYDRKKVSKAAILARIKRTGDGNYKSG

[4] = Non-GLP pharmacokinetic (PK) and toxicokinetic (TK) studies; format: in vivo, mice, rats and dogs
[5] = Oral PK in mice (Table 1); format: in vivo; details: mouse, plasma, C57BL/6 mice, 10 mg/kg oral gavage
Experimental: Serum chemistry and histochemical analysis is done for both the Western Diet and MCD mouse models. Body weight and Echo-MRI is used to determine lean muscle, fat, and water content of the mice. At the end of the study, the animals are fasted overnight, and blood samples are collected for serum chemistry. A full panel of liver and metabolite biomarkers are assessed. This standard panel includes triglycerides and total cholesterol, triglycerides (TG), ALP, ALT, AST, Creatinine kinase, amylase, lipase, total bilirubin, LDH, as well as calcium, bicarbonate, potassium and sodium. Liver function tests from this panel include Aspartate aminotransferase level (AST), Alanine aminotransferase level […], GGT, Apolipoprotein, Glucose levels, and Alkaline Phosphatase (ALP), Proc-3, GAL-3, YKL-40, CK-18 and Caspase cleaved (MN-65, MN-30). Additionally, insulin, leptin and adiponectin levels are assessed as part of validation of models.
Compound 1 quantification from mouse plasma is performed using LC-MS/MS on ExionLC system equipped with Kinetex XB-C18, 2.1×50 mm (Phenomenex 00B-4496-AN) column coupled with AB Sciex 5500 QTrap instrument (equipped with TurboIonspray ionization source and Analyst software), with Acetonitrile/water/0.1% v/v formic acid as mobile phase. Blood samples collected are centrifuged at 1300 g, 2-8° C., ≥10 minutes and the collected plasma are stored either on ice (less than 1 hour) or at −80° C. until further processing. Predetermined quantities of plasma are vortexed with ice-cold acetonitrile to precipitate the protein content and centrifuged at 1300 g, 2-8° C., ≥10 minutes. Supernatant is taken in a labelled vial and evaporated at 40° C. under a gentle stream of nitrogen. The precipitates are reconstituted in LC-MS grade methanol and centrifuged at 1300 g, 2-8° C., ≥10 minutes. The supernatant is sampled for LC-MS/MS analysis. The concentration of Compound 1 is estimated by standard curve developed from plasma standards spiked with deuterium labeled Compound 1 as internal standard. Deuterium labeled Compound 1 is on-hand. In some embodiments, deuterium labeled Compound 1 has the following structure: […]

[6] = Oral PK in dogs (Table 1); format: in vivo; details: dog, plasma, canine, 20 mg/kg oral gavage
[7] = 14-day repeat oral dosing toxicity/toxicokinetics in dogs; format: in vivo
Experimental: Healthy beagles (Canis lupis familiaris) were dosed daily (oral gavage) for 14 days, and blood was collected on day 15.
A dosing regimen has been determined for Compound 1. Single dose and 7-day dosing non-GLP toxicity has been performed in rats and dogs and GLP toxicity in dogs 14 days repeat dosing. […] Dose conversion has been done via allometry based on body surface area.
These issues were attributed to atrophy of the Meibomian gland (the specialized sebaceous gland of the eyelid—see, e.g., FIG. 6). […] Mitigation the sequelae of events that occur due to dry eye is achieved by prophylactic administration of lipid eye drops and clinical eye exam every 14 days during a clinical trial.

[8] = meta-analysis, off-label use; cited from earlier work
[9] = Compound 1 alone, Western Diet mice
[10] = 4 hour, read-out: Drug in Plasma, 4 hour
[11] = 8 hour, read-out: Drug in Plasma, 8 hour
[12] = 24 hour, read-out: Drug in Plasma, 24 hour

In the case of `CCCCCCCCCCCCCCCCCCCC(=O)N[C@H]1CC[C@@]2(C)[C@@H](C1)C[C@@H](O)[C@@H]1[C@@H]2C[C@H](O)[C@]2(C)[C@@H]([C@H](C)CCC(=O)O)CC[C@@H]12` [Aramchol], the “SCD1 mRNA expression levels” value (SCD1 mRNA) is listed as “reduces expression of the mRNA for SCD1; also recorded: downregulates SCD1; also recorded: reduces SCD1 mRNA expression levels”.

With `CNC(=O)c1ccnc(NC(=O)N2CCC(Oc3ccccc3Cl)CC2)c1` [Compound 1] the “off-target reactivity with kinases” value (known kinases) was “does not significantly react off-target with any known kinases”, the “induction of liver enzymes” value ([1]; oral 50-300 mg/kg) was “does not induce liver enzymes” and the tolerability ([1]; oral dose range 50-300 mg/kg) was “well tolerated”. The plasma glucose [2, 9] was “does not reduce”, the plasma triglycerides [2, 9] was “does not reduce” and the liver steatosis ([2]; Western Diet 4 months, 2 mg/kg IP 10 days, H&E quantification, N=3, 2 mg/kg) was “reversal of liver steatosis; also recorded: significant reduction in liver steatohepatitis; also recorded: significantly reduced liver steatosis; also recorded: reduces liver steatosis”. The “liver function plasma markers / serum chemistry (ALP and BUN levels)” value ([2]; Western Diet 4 months, 2 mg/kg IP 10 days, N=3, 2 mg/kg) was “Significant attenuation of liver damage; also recorded: improved liver function plasma markers; also recorded: significantly improves liver function tests”, the “efficacious dose for NASH” value ([2]; preliminary data) was 2 mg/kg and the AUC(0-t) [3] was 96400 ng·h/mL. It also gave a Cmax [3] of 11600 ng/mL, a Tmax [3] of 30 min and a concentration at 4 h [3, 10] of 8920 ng/mL. For the same compound, the concentration at 8 h [3, 11] was 4130 ng/mL, the concentration at 24 h [3, 12] was 437 ng/mL and the “mode of SCD1 inhibition” value (SCD1) was “inhibits enzymatic activity competitively; also recorded: competitive inhibition; also recorded: reversible”. For the same compound, the IC50 (SCD1; 13C18-stearoyl CoA to 13C18-oleoyl, LC-MS/MS, liver microsomes, read-out: IC50 for blocking SCD1 enzymatic activity) was 1.9 nM, the oral bioavailability ([4]; in vivo, po) was “good oral bioavailability; also recorded: favorable oral bioavailability; also recorded: orally bioavailable” and the tolerability ([4]; mice, rats and dogs) was “well-tolerated”. For the same compound, the AUC(0-t) [5] was 20900 ng·h/mL, the Cmax [5] was 4320 ng/mL and the concentration at 4 h [5, 10] was about 3000 ng/mL. The concentration at 8 h [5, 11] was about 900 ng/mL, the concentration at 24 h [5, 12] was about 25 ng/mL and the AUC(0-t) [6] was 90500 ng·h/mL. For the same compound, the Cmax [6] was 12500 ng/mL, the Tmax [6] was 60 min and the concentration at 4 h [6, 10] was 8310 ng/mL. The concentration at 8 h [6, 11] was 3200 ng/mL, the concentration at 24 h [6, 12] was 212 ng/mL and the “chemistry, urinalysis, electrocardiograph and hematological parameters vs vehicle control” value ([7]; 14-day GLP dog study) was “no substantial differences”. For the same compound, the “reversibility of eye damage” value ([7]; 14-day recover dogs (2M/2F)) was “Most of the damage to eyes was reversible”, the WBC ([7]; beagles, daily oral gavage 14 days) was “no dramatic changes” and the “liver enzymes or cholesterol levels” value ([7]; beagles, daily oral gavage 14 days, blood on day 15) was “no significant changes”. The MTD at 14 days ([7]; both sexes, beagle, dog, in vivo, dogs, oral, read-out: maximum tolerated dose (MTD)) was 20 mg/kg, the “therapeutic window for the treatment of NASH” value ([7]; dog, in vivo) was “wide therapeutic window” and the ophthalmic observations ([7]; dogs at the maximum tolerated doses) was “inflammation of the ocular surface with occasional corneal ulceration and low intraocular pressure”. For the same compound, the dose limiting toxicity ([7]; dogs, 14-day repeat dosing, high doses) was “ocular inflammation”.

For `CCc1ccc(CCOc2ccc(CC3SC(=O)NC3=O)cc2)nc1` (stereo not drawn) [pioglitazone], the “efficacy in human NAFLD” value [8] is given as “efficacious in human NAFLD”.
